Experimental data published in patent publication US20220265845A1, “AMINOTHIOLESTER COMPOUNDS AND USES THEREOF” (ADVANCED BIODESIGN, priority 2019, published 2022).

Legend:
[1] = tested on: HL-60; experiment: Cell viability assay (Resazurin), cytotoxicity in HL60 cells; format: cell-based; conditions: Homo sapiens, HL-60, read-out: IC50 at 48 h, 48 hours of incubation
Experimental: Cell lines. Leukemic cell line, HL-60 (derived from a person with AML-M2), was used for determination of drug efficacy. Cells were obtained from the European Collection of Cell Cultures (ECACC). All cells were cultivated in appropriate media according to supplier recommendations.
Cell Viability assay, 96-well format. Cells were seeded into 96-well cell culture plates at concentrations required to ensure approximately 80% confluence in control (untreated cells) at the end of experiment (0.5×10^4-5×10^4 cell/well).
The sensitivity towards compounds according to the invention was determined using different concentrations of each compound ranging from 0.5 to 100 μM (0.5, 1, 2, 5, 10, 15, 20, 25, 30, 40, 50, 100 μM). Following 48 hours of incubation at 37° C. in a humidified atmosphere containing 5% CO2, the growth-inhibitory effect of compounds was analyzed using Resazurin, according to manufactures instructions.
To ensure good data quality and to minimize impact of pipetting errors, each compounds concentration was assessed based on mean fluorescence intensity from 8 separate wells. Compounds response were quantified by the half maximal inhibitory concentration (IC50) for each particular cell line, and determined by non-linear regression analysis of log-dose/response curves.
Statistical Analysis. Values were expressed as mean±SD or frequencies and proportions. Cell viability curves were determined using four parameter regression line. Differences between groups were determined by unpaired t test, Chi-square, Fisher's exact test or ANOVA, where appropriate. P<0.05 was considered statistically significant. Analysis was performed using GraphPad prism version 5.0 (GraphPad software, San Diego Calif. USA).

[2] = molecular target: T1, Human recombinant ALDH1A3 (Homo sapiens, UniProt P47895); experiment: Enzymatic assay with human recombinant ALDH (NADH fluorescence), IC50; format: biochemical; conditions: substrate Hexanal, NAD+, 37° C.
T1 construct: purchased Creative BioMart, NY, USA
T1 sequence (P47895 1-512): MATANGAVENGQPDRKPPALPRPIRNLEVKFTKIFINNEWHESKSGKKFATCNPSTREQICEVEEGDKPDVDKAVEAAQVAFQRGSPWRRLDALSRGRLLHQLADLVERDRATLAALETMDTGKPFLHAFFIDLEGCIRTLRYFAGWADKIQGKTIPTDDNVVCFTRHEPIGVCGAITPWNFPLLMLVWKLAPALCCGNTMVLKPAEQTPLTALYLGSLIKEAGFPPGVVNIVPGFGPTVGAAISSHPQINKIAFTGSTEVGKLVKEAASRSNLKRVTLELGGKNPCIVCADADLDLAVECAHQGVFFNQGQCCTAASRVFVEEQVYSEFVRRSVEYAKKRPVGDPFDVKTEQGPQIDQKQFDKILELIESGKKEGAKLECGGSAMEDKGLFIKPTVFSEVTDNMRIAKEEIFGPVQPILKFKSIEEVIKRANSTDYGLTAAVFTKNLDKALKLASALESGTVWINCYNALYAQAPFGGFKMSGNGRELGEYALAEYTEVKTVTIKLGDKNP
Experimental: (§1) Human recombinant ALDH1A1, ALDH1 A2, ALDH1A3, ALDH2 (Creative BioMart, NY, USA) were prepared at 1 mg/mL. The enzymatic reactions were performed using saturating concentrations of substrate. To test the enzymatic activity of the enzymes, 10 μL of enzyme was added into a reaction buffer containing 50 mM HEPES pH 7.2, 30 mM MgCl2, plus 20 mM NAD^+ cofactor and 2 mM Hexanal (Sigma-Aldrich, St. Louis, Mo., USA) in the presence or absence of the different tested compounds. Internal standards were prepared with Nicotinamide adenine dinucleotide reduce form (NADH, 500 μM, Sigma-Aldrich) in Reaction Buffer (50 mM HEPES pH 7.2, 30 mM MgCl2).
(§2) Time-dependent inhibition assays were performed for 0-2-5-10-15-20-30-45-60 min at 37° C. in 1 mL-quartz cuvette. The formation of NADH was monitored, reading samples at excitation wavelength=340 nm/emission wavelength=460 nm (fluorescence) for at least 600 sec using Cary Eclipse Varian fluorimeter.
Negative control consisted in the same reactions except that enzyme was not added (enzyme blank). To determine the slope for enzyme blank and calculate product concentration (Unit of fluorescence) the following formulae was used: […]
where Cst is the standard NADH concentration, Fst is the standard fluorescence and dF/dt is the slope of the time dependent fluorescence (S. Sotobodowska et al, 2012). The specific activity of the enzymes (μmol/min·mg-U/mg) in the absence of presence of inhibitors was calculated as follows: […]

[3] = tested on: ALDH class 1 recombinant enzymes; experiment: Comparison with DIMATE on ALDH class 1 recombinant enzymes; format: biochemical, human; conditions: from IC50 of Table 4
Experimental: as §1, §2
The kinetic data are expressed as the mean±standard error from three independent determination. Kinact/Ki was determined from Kobs versus concentration of the inhibitor [I] plots. […] The Kobs were obtained from negative exponential fit using non-linear regression program GraFit 5.0 (Erithacus software).

IC50 [2] | Inhibition of the ALDH class 1 enzymes compared with DIMATE [3] | SMILES | IC50 [1]
3.4 ± 0.1 µM | higher inhibition | CSC(=O)C#CC(C)(C)N(C)CCOCc1ccccc1 [Example 3, S-methyl 4-[2-benzyloxyethyl(methyl)amino]-4-methyl-pent-2-ynethioate] | 1.17 µM
20 ± 2 µM |  | CSC(=O)C#CC(C)(C)N(C)C [DIMATE, S-methyl 4-(dimethylamino)-4-methylpent-2-ynethioate, reference compound] | 
4.8 ± 0.1 µM | higher inhibition | CSC(=O)C#CC(C)(C)N(C)CCOCc1ccc(C)c(C)c1 [Example 5, S-methyl 4-[2-[(3,4-dimethylphenyl)methoxy]ethyl-methyl-amino]-4-methyl-pent-2-ynethioate] | 4.72 µM
